{"source": "patent US7425635B2", "about": "“Prodrugs and conjugates of thiol- and selenol-containing compounds and methods of use thereof” (University of Utah Research Foundation, priority 1997, dated 2008)", "key": {"Ugt1a6": {"test_system": "Ugt1a6", "assay": "Northern blot of liver Ugt1a6 mRNA after ip dosing", "format": "in vivo, mice", "settings": "mean ± SEM", "protocol": "(§1) Linking efficacy to biochemical parameters and a mechanism was limited in the initial study by only two parameters, [Se] and GPx activity. The in-vivo effects of selenazolidine compounds were then evaluated using, in addition to GPx, glutathione S-transferases (GSTs), quinone oxidoreductases (NQORs), UDP-glucuronosyltransferases (UGTs), and microsomal epoxide hydrolase (mEH). To investigate transcriptional changes of these classes of enzymes, it was necessary to develop a battery of cDNA probes for use in Northern blot analysis of RNA extracted from treated animals (Table 2).\n(§2) Whether the selenaproline compounds had the ability to up-regulate the transcription of Phase II and/or other “protective” enzymes was first evaluated following a single dose of each (Table 3). […] The experiment was repeated but with a 7-day treatment regimen (Table 4), the time period for which the compounds were given in the diet before NNK administration in the tumor experiment reported in Table 1. […] With multiple doses, SCA induced Ugt1a9, an mRNA that was not changed with a single dose. […] The elevation in the Gst-mu transcript was unique to multiple OSCA treatment. The elevation of the GST-alpha mRNA was also seen with SCA treatment. Microsomal epoxide hydrolase mRNA was robustly elevated by multiple doses of all three selenaproline compounds, an effect not anticipated from the single dose experiment where not even minor changes were apparent."}, "mEH": {"test_system": "mEH", "assay": "Northern blot of liver mEH mRNA after ip dosing", "format": "in vivo, mice", "settings": "mean ± SEM", "protocol": "as §1, §2"}, "Gst-alpha": {"test_system": "Gst-alpha", "assay": "Northern blot of liver Gst-alpha mRNA after ip dosing", "format": "in vivo, mice", "settings": "1 dose ip, liver RNA 24 hours after dosing, mean ± SEM", "protocol": "as §1, §2"}, "Ugt1a1": {"test_system": "Ugt1a1", "assay": "Northern blot of liver Ugt1a1 mRNA after ip dosing", "format": "in vivo, mice", "settings": "mean ± SEM", "protocol": "as §1, §2"}, "GPx [1]": {"test_system": "GPx", "assay": "Northern blot of liver GPx mRNA after ip dosing", "format": "in vivo, mice", "settings": "mean ± SEM", "protocol": "as §1, §2"}, "Gst-mu": {"test_system": "Gst-mu", "assay": "Northern blot of liver Gst-mu mRNA after ip dosing", "format": "in vivo, mice", "settings": "mean ± SEM", "protocol": "as §1, §2"}, "[2]": {"assay": "Stability in aqueous solution", "format": "physicochemical", "settings": "compared with MSCA; previous studies", "text": "Accordingly, additional compounds were synthesized with a range of partition coefficients (Table 6) and evaluated their ability to alter gene transcription following single (Table 7) and multiple (Table 8) doses. The new 2-(R,S)-substituted-4(R)-carboxylic acid derivatives involving 2-butyl, 2-cyclohexyl, 2-phenyl and 2-(2-hydroxyphenyl) were synthesized utilizing the reaction of selenocysteine and the appropriate carboxaldehyde. They were purified by crystallization from ethanol/acetonitrile mixtures and their molecular structures were verified by spectral methods of analysis (′HNMR, ^13CNMR, ESIMs and HRMS)."}, "Ugt1a9": {"test_system": "Ugt1a9", "assay": "Northern blot of liver Ugt1a9 mRNA after ip dosing", "format": "in vivo, mice", "settings": "1.25 mg Se/kg, mean ± SEM", "protocol": "as §1, §2"}, "[3]": {"assay": "sALT (hepatotoxicity) after 7 daily ip doses", "format": "in vivo", "set-up": "unit not given here", "settings": "7 daily doses ip, 1.25 mg Se/kg, with corn oil; untreated mice 37.5 ± 2.9", "text": "Many of the mRNA changes seen with a single dose were not sustained with multiple dosing. Changes in Ugt transcripts after multiple dosing were noticeably absent. Unique to BSCA among the four new compounds investigated was its ability to induce Gst-alpha, Gst-mu and GPx mRNAs. For the Gst-alpha transcripts, which appeared elevated by corn oil, the BSCA increase was much greater than the vehicle alone (8-fold versus 2-fold) and was statistically significant (p<0.05). BSCA shared with PhOHSCA the ability to elevate mEH mRNA."}, "GST": {"test_system": "GST", "assay": "Hepatic cytosolic GST (CDNB) activity after 7 daily ip doses", "format": "in vivo, mice", "settings": "7 daily doses ip, hepatic cytosol; naive 5248 ± 503"}, "GPx [4]": {"test_system": "GPx", "assay": "Hepatic cytosolic GPx (H202) activity after 7 daily ip doses", "format": "in vivo, mice", "settings": "7 daily doses ip, hepatic cytosol; naive 894 ± 36"}, "NNK lung tumor": {"test_system": "NNK lung tumor", "assay": "NNK lung tumor four-month feeding study", "format": "in vivo", "settings": "mice, diet 15 ppm Se from 1 week prior to NNK (10 umol, ip), sacrificed after 16 weeks", "protocol": "(§3) Three novel selenazolidines, 2-methyl-, 2-oxo- and 2-unsubstituted (i.e., selenaproline) selenazolidine-4[R]-carboxylic acid (MSCA, OSCA, and SCA respectively) that had been synthesized as prodrugs of selenocysteine were evaluated for their potential to act as cancer chemopreventive agents. [Se] and GPx activity were evaluated.\n(§4) Where indicated, mice (16 g) were given diets fortified with SCA, MSCA or OSCA (15 ppm Se) for 1 week prior to NNK (10 umol, ip). Two other groups received the unmodified AIN-76A diet, with and without NNK administration. All groups were maintained on their pretreatment diet until the animals were sacrificed after 16 weeks. Liver GPx activity is expressed as μmol NADPH oxidized [in regenerating GSH]/min/mg 10,000 g×20 min supernatant protein; RBC activity as μmol/min/mg RBC lysate hemoglobin."}, "GPx [5]": {"test_system": "GPx", "assay": "Hepatic and RBC (tButylOOH) GPx activity in four-month feeding study", "format": "in vivo", "settings": "mice, diet 15 ppm Se, NNK", "protocol": "as §3, §4"}, "[6]": {"assay": "Body weight gain and liver weight in four-month feeding study", "format": "in vivo", "settings": "mice, diet 15 ppm Se, NNK", "protocol": "as §4"}, "[7]": {"settings": "1 dose ip, 1.25 mg Se/kg in corn oil, liver RNA 24 hours after dosing"}, "[8]": {"settings": "7 daily doses ip, 1.25 mg Se/kg, with corn oil, liver RNA 24 hours after the last dose"}, "[9]": {"settings": "1 dose ip, 1.25 mg Se/kg, liver RNA 24 hours after dosing"}, "[10]": {"settings": "7 daily doses ip, 1.25 mg Se/kg, liver RNA 24 hours after the last dose"}}}
{"smiles": "CCCCC1NC(C(=O)O)C[Se]1", "note": "(stereo not drawn) [BSCA, 2-n-butyl-SCA]", "values": [{"measurement": "Ugt1a6 mRNA", "setting": "Ugt1a6; [7]", "result": "1.95 ± 0.21", "unit": "fold change from naive"}, {"measurement": "Ugt1a6 mRNA", "setting": "Ugt1a6; [8]", "result": "1.84 ± 0.54", "unit": "fold change from naive"}, {"measurement": "mEH mRNA", "setting": "mEH; [7]", "result": "0.69 ± 0.19", "unit": "fold change from naive"}, {"measurement": "Gst-alpha mRNA", "setting": "Gst-alpha; 1.25 mg Se/kg in corn oil", "result": "1.39 ± 0.05", "unit": "fold change from naive"}, {"measurement": "Ugt1a1 mRNA", "setting": "Ugt1a1; [7]", "result": "0.83 ± 0.28", "unit": "fold change from naive"}, {"measurement": "Ugt1a1 mRNA", "setting": "Ugt1a1; [8]", "result": "1.21 ± 0.26", "unit": "fold change from naive"}, {"measurement": "GPx mRNA", "setting": "GPx [1]; [7]", "result": "1.58 ± 0.46", "unit": "fold change from naive"}, {"measurement": "Gst-mu mRNA", "setting": "Gst-mu; [7]", "result": "1.58 ± 0.46", "unit": "fold change from naive"}, {"measurement": "Stability in aqueous solution", "setting": "[2]", "result": "much more stable in aqueous solution than MSCA"}, {"measurement": "Ugt1a9 mRNA", "setting": "Ugt1a9; 7 daily doses ip, with corn oil, liver RNA 24 hours after the last dose", "result": "1.69 ± 0.35", "unit": "fold change from naive"}, {"measurement": "sALT", "setting": "[3]", "result": "37.1 ± 2.7"}]}
{"smiles": "O=C(O)C1C[Se]CN1", "note": "(stereo not drawn) [SCA, selenazolidine-4-carboxylic acid]", "values": [{"measurement": "Ugt1a6 mRNA", "setting": "Ugt1a6; [9]", "result": "1.01 ± 0.29", "unit": "fold change from naive"}, {"measurement": "Ugt1a6 mRNA", "setting": "Ugt1a6; [10]", "result": "1.01 ± 0.07", "unit": "fold change from naive"}, {"measurement": "GST (CDNB) activity", "setting": "GST", "result": "6576 ± 595 nmol/mg cytosol (100,000 g supernatant) protein/min"}, {"measurement": "mEH mRNA", "setting": "mEH; [9]", "result": "1.36 ± 0.40", "unit": "fold change from naive"}, {"measurement": "mEH mRNA", "setting": "mEH; [10]", "result": "3.25 ± 1.80", "unit": "fold change from naive"}, {"measurement": "Gst-alpha mRNA", "setting": "Gst-alpha; 1.25 mg Se/kg", "result": "1.15 ± 0.28", "unit": "fold change from naive"}, {"measurement": "GPx (H202) activity", "setting": "GPx [4]", "result": "862 ± 81 nmol/mg cytosol (100,000 g supernatant) protein/min"}, {"measurement": "NNK Tumors", "setting": "NNK lung tumor", "result": "6.7 ± 0.8"}, {"measurement": "Ugt1a1 mRNA", "setting": "Ugt1a1; [9]", "result": "1.03 ± 0.18", "unit": "fold change from naive"}, {"measurement": "Ugt1a1 mRNA", "setting": "Ugt1a1; [10]", "result": "2.25 ± 0.25", "unit": "fold change from naive"}, {"measurement": "RBC (tButylOOH) GPx", "setting": "GPx [5]; RBC", "result": "253 ± 33 μmol/min/mg RBC lysate hemoglobin"}, {"measurement": "Hepatic (tButylOOH) GPx", "setting": "GPx [5]; liver", "result": "409 ± 46 μmol NADPH oxidized/min/mg 10,"}, {"measurement": "GPx (1.5 kb) mRNA", "setting": "GPx [1]; [9]", "result": "1.12 ± 0.04", "unit": "fold change from naive"}, {"measurement": "GPx mRNA", "setting": "GPx [1]; [10]", "result": "1.55 ± 0.76", "unit": "fold change from naive"}, {"measurement": "Body wt gain (%)", "setting": "[6]", "result": 51.1, "unit": "%"}, {"measurement": "Liver weight", "setting": "[6]", "result": "1.18 ± 0.02", "unit": "g"}, {"measurement": "Gst-mu mRNA", "setting": "Gst-mu; [9]", "result": "1.28 ± 0.09", "unit": "fold change from naive"}, {"measurement": "Gst-mu mRNA", "setting": "Gst-mu; [10]", "result": "0.58 ± 0.11", "unit": "fold change from naive"}, {"measurement": "Ugt1a9 mRNA", "setting": "Ugt1a9; 1 dose ip, liver RNA 24 hours after dosing", "result": "1.35 ± 0.50", "unit": "fold change from naive"}]}
